Reference: ChEMBL document CHEMBL1201862, “PubChem BioAssay data set” (2004)
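Five compound concentrations were applied to cells in 96-well plates for 48 hours; endpoints were derived by simple linear interpolation of the resulting dose-response curve. GI50 is the concentration that inhibits growth by half.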 Calls of active or inactive are those of the source. Rule as the data show it: active = GI50 up to about 1.1 µM and inactive = higher. Where a SMILES comes first, the peptide text is derived from it. [ ]: non-standard residue; d: D form. The star is where a group is joined. Cbz = O=C(OCc1ccccc1)*; Aib = CC(C)(N)C(=O)O; OBn = c1ccc(CO*)cc1

How the values were obtained:
Assay in all cases: DTP human tumour cell line panel, 48 h
IGROV-1 = system: IGROV-1
DU-145 = system: DU-145
SF-295 = system: SF-295
KM12 = system: KM12
HCT-15 = system: HCT-15
SR = system: SR
A549 = system: A549
OVCAR-8 = system: OVCAR-8
NCI-H226 = system: NCI-H226
U-251 = system: U-251
MOLT-4 = system: MOLT-4
M14 = system: M14
NCI-H23 = system: NCI-H23
ACHN = system: ACHN
SK-MEL-28 = system: SK-MEL-28
SF-539 = system: SF-539
MDA-MB-435 = system: MDA-MB-435
SK-MEL-2 = system: SK-MEL-2
MDA-N = system: MDA-N
MDA-MB-231 = system: MDA-MB-231

Structure (SMILES) | GI50 (IGROV-1) | GI50 (DU-145) | GI50 (SF-295) | GI50 (KM12) | GI50 (HCT-15) [µM] | GI50 (SR) | GI50 (A549) | GI50 (OVCAR-8) | GI50 (NCI-H226) | GI50 (U-251) | GI50 (MOLT-4) | GI50 (M14) | GI50 (NCI-H23) | GI50 (ACHN) | GI50 (SK-MEL-28) | GI50 (SF-539) | GI50 (MDA-MB-435) | GI50 (SK-MEL-2) | GI50 (MDA-N) | GI50 (MDA-MB-231)
N=C(N)NS(=O)(=O)c1ccc(NC(=O)c2ccc3nc4ccccc4c(N)c3c2)cc1 | > 100 µM (inactive) | > 100 µM (inactive) | > 100 µM (inactive) | 74.6 µM (inactive) | > 100 | > 100 µM (inactive) | > 100 µM (inactive) | > 100 µM (inactive) | > 100 µM (inactive) | > 100 µM (inactive) | > 100 µM (inactive) | > 100 µM (inactive) | > 100 µM (inactive) | > 100 µM (inactive) | > 100 µM (inactive) | > 100 µM (inactive) | > 100 µM (inactive) | > 100 µM (inactive) | > 100 µM (inactive) | > 100 µM (inactive)
CC(NC(=O)C(C)(C)NC(=O)C(CC(=O)OCc1ccccc1)NC(=O)OCc1ccccc1)C(N)=O (stereo not given) (Cbz-Asp(OBn)-[Aib]-Ala-NH2; configuration not given here) | > 100 µM (inactive) | > 100 µM (inactive) | 43 µM (inactive) | > 100 µM (inactive) | > 100 | > 100 µM (inactive) | > 100 µM (inactive) | > 100 µM (inactive) | > 100 µM (inactive) | > 100 µM (inactive) | > 100 µM (inactive) | > 100 µM (inactive) | > 100 µM (inactive) | > 100 µM (inactive) | > 100 µM (inactive) | > 100 µM (inactive) | > 100 µM (inactive) | > 100 µM (inactive) | > 100 µM (inactive) | > 100 µM (inactive)
COC(=O)c1cc(/C=C2\Cc3cc4c(cc3C2=O)CCC4)cc2c1CCC2 | > 100 µM (inactive) | > 100 µM (inactive) | > 100 µM (inactive) | > 100 µM (inactive) | > 100 | > 100 µM (inactive) | > 100 µM (inactive) | > 100 µM (inactive) | > 100 µM (inactive) | > 100 µM (inactive) | > 100 µM (inactive) | > 100 µM (inactive) | > 100 µM (inactive) | > 100 µM (inactive) | > 100 µM (inactive) | > 100 µM (inactive) | > 100 µM (inactive) | > 100 µM (inactive) | > 100 µM (inactive) | > 100 µM (inactive)
CN(C(=O)c1cc2c(s1)sc1c(=O)n(C)c3ccccc3c12)c1ccccc1 | 4.37 µM (inactive) | 69.8 µM (inactive) | 2.25 µM (inactive) | 0.729 µM (active) | 1.72 | 1.93 µM (inactive) | 8.55 µM (inactive) | 11.2 µM (inactive) | 5.48 µM (inactive) | 10.9 µM (inactive) | 3.63 µM (inactive) | 50.9 µM (inactive) | 7.73 µM (inactive) | 5.46 µM (inactive) | > 100 µM (inactive) | 5.45 µM (inactive) | 0.828 µM (active) | 3.77 µM (inactive) | 0.61 µM (active) | 24.8 µM (inactive)
CC(=O)NC1C(OCc2ccccc2)OC(CO)C(O)C1OCC(=O)N[C@@H](C)C(=O)N[C@H](CCC(=O)NCCCCNc1c2ccccc2nc2cccc([N+](=O)[O-])c12)C(N)=O (stereo not given in full) | 0.804 µM (active) | 1.91 µM (inactive) | 3.88 µM (inactive) | 1.83 µM (inactive) | 1.97 | 1.07 µM (active) | 0.959 µM (active) | 1.55 µM (inactive) | 1.84 µM (inactive) | 1.87 µM (inactive) | 1.6 µM (inactive) | 2.23 µM (inactive) | 0.984 µM (active) | 1.33 µM (inactive) | 4.5 µM (inactive) | 0.731 µM (active) | 1.62 µM (inactive) | 2.51 µM (inactive) | 1.64 µM (inactive) | 2.5 µM (inactive)
O=C(O)CCc1ccc(-c2ccccc2)[nH]1 | > 100 µM (inactive) | > 100 µM (inactive) | > 100 µM (inactive) | > 100 µM (inactive) | > 100 | > 100 µM (inactive) | > 100 µM (inactive) | > 100 µM (inactive) | > 100 µM (inactive) | > 100 µM (inactive) | > 100 µM (inactive) | > 100 µM (inactive) | > 100 µM (inactive) | > 100 µM (inactive) | > 100 µM (inactive) | > 100 µM (inactive) | > 100 µM (inactive) | > 100 µM (inactive) | > 100 µM (inactive) | > 100 µM (inactive)
CNc1nc2n(CCO)c(-c3ccccc3)c(-c3ccccc3)nc-2c(=O)n1 | > 50 µM (inactive) | > 50 µM (inactive) | > 50 µM (inactive) | > 50 µM (inactive) | > 50 | > 50 µM (inactive) | > 50 µM (inactive) | > 50 µM (inactive) | > 50 µM (inactive) | > 50 µM (inactive) | > 50 µM (inactive) | > 50 µM (inactive) | > 50 µM (inactive) | > 50 µM (inactive) | > 50 µM (inactive) | > 50 µM (inactive) | > 50 µM (inactive) | > 50 µM (inactive) | > 50 µM (inactive) | > 50 µM (inactive)
